According to patent publication US12667572B2, “Tricyclic compounds useful in the treatment of cancer, autoimmune and inflammatory disorders” (SCHRÖDINGER, INC., priority 2021, dated 2026):

Target: T1, full-length MALT1 protein His-MALT1(1-824) (Homo sapiens, UniProt Q9UDY8)
T1 construct: full-length MALT1 protein His-MALT1(1-824); His (N); made in house; host or cells: baculovirus-infected insect cells
T1 sequence (Q9UDY8 1-824): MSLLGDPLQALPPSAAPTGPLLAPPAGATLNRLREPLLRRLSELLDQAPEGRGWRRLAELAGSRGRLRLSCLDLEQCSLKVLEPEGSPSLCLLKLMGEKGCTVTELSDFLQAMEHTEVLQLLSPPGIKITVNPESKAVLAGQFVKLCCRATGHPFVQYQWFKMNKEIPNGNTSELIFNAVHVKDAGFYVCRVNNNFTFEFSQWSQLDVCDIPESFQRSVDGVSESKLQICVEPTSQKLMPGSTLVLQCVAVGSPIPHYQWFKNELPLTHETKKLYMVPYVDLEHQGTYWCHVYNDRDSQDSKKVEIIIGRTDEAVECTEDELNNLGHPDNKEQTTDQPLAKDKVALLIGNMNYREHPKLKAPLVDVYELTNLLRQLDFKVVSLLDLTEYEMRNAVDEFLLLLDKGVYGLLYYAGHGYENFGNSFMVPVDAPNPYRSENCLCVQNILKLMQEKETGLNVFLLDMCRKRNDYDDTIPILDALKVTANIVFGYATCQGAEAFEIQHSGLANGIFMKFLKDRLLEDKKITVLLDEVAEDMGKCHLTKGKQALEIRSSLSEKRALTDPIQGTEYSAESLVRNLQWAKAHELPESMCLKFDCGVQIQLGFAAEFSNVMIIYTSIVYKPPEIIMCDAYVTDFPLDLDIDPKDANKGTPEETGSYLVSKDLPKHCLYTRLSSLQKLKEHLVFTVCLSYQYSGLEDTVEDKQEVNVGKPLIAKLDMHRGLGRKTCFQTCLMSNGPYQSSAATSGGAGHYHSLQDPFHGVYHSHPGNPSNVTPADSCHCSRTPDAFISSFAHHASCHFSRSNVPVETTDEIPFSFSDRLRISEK
Experiment: MALT1 protease assay, Assay 1 (2 nM MALT1, Ac-LRSR-AMC substrate)
Assay type: biochemical
Conditions: 2 nM MALT1, 50 μM Ac-LRSR-AMC, 2 h pre-incubation, 8 hr incubation at RT
Method: MALT1 protease activity was assessed in an in vitro assay using a tetrapeptide as substrate and full-length MALT1 protein His-MALT1(1-824) purified from baculovirus-infected insect cells. The tetrapeptide substrate is Ac-LRSR-AMC (SM Biochemicals) with Km measured at around 100 μM.
The final assay buffer includes 1 nM (Assay 2) or 2 nM (Assay 1) of MALT1 full-length protein, 50 μM Ac-LRSR-AMC substrate, 50 mM Tris pH 7.5, 600 mM Sodium Citrate, 1 mM DTT, 1 mM EDTA, and 0.05% BSA in 384-well plate format using black microtiter square well plates (Optiplate 384-F, Perkin Elmer).
Test compounds were dissolved in 100% DMSO at stock of 10 mM, with final DMSO concentration 0.1%. Test compounds were pre-incubated with MALT1 protein for 2 h at room temperature. Substrate was added after the pre-incubation and fluorescence signal was measured using Envision at excitation 355 nm and emission 460 nm after 8 hr incubation at RT. Increase in the assay signal was linear over this period and proportional with increase in the enzyme content.
The fluorescence units were transformed to percentage of remaining activity by using the high control (HC, median of fluorescence signal from wells containing MALT1 protein, substrate, and DMSO) and low control (LC, median of fluorescence signal from wells with substrate only) with the formula below: […]
IC50 and Hill coefficients were obtained using Graph Pad Prism (Graph Pad software, Inc, USA) with non-linear regression analysis.

Question: For `CC1(C)C[C@@H](C(=O)Nc2cnc(-n3cc(C#N)cn3)c(Cl)c2)c2cnc3cc(Cl)nn3c21` (single isomer, unassigned) [Example 14, 2-chloro-N-(5-chloro-6-(4-cyano-1H-pyrazol-1-yl)pyridin-3-yl)-8,8-dimethyl-7,8-dihydro-6H-cyclopenta[e]pyrazolo[1,5-a]pyrimidine-6-carboxamide], which IC50 is on record?
Answer: ≥ 1000 nM

Question: `CC1(C)C[C@@H](C(=O)Nc2cnc([C@@H]3CCCO3)c(Cl)c2)c2cnc3cc(Cl)nn3c21` (single isomer, unassigned) [Example 26, 2-chloro-N-(5-chloro-6-(tetrahydrofuran-2-yl)pyridin-3-yl)-8,8-dimethyl-7,8-dihydro-6H-cyclopenta[e]pyrazolo[1,5-a]pyrimidine-6-carboxamide] was tested. Which IC50 did it give?
Answer: ≥ 1000 nM

Question: How did the IC50 turn out when `CC1(C)C[C@@H](C(=O)Nc2cnc(N3CCCC3)c(Cl)c2)c2cnc3cc(Cl)nn3c21` (single isomer, unassigned) [Example 16, 2-chloro-N-(5-chloro-6-(pyrrolidin-1-yl)pyridin-3-yl)-8,8-dimethyl-7,8-dihydro-6H-cyclopenta[e]pyrazolo[1,5-a]pyrimidine-6-carboxamide] was run?
Answer: ≥ 1000 nM

Question: With `CC1(C)CC[C@@H](C(=O)Nc2cnc(-n3nccn3)c(Cl)c2)c2cnc3cc(Cl)nn3c21` (single isomer, unassigned) [Example 8, 2-chloro-N-(5-chloro-6-(2H-1,2,3-triazol-2-yl)pyridin-3-yl)-9,9-dimethyl-6,7,8,9-tetrahydropyrazolo[1,5-a]quinazoline-6-carboxamide] as the molecule, how does the IC50 read?
Answer: ≥ 1000 nM

Target: T1, full-length MALT1 protein His-MALT1(1-824)
Experiment: MALT1 protease assay, Assay 2 (1 nM MALT1, Ac-LRSR-AMC substrate)
Assay type: biochemical
Conditions: 1 nM MALT1, 50 μM Ac-LRSR-AMC, 2 h pre-incubation, 8 hr incubation at RT
Method in brief: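 Full-length His-MALT1(1-824) from baculovirus-infected insect cells, pre-incubated with compound 2 h at RT (0.1% DMSO). Then 50 μM Ac-LRSR-AMC added. Buffer was Tris pH 7.5 with 600 mM sodium citrate, DTT, EDTA and BSA. Fluorescence (ex 355/em 460 nm) was read after 8 h at RT and normalized to high/low controls. IC50 from non-linear regression.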

Question: How did the IC50 turn out when `C[C@@]1(C(F)(F)F)C[C@@H](C(=O)Nc2cnc(-n3nccn3)c(Cl)c2)c2cnc3cc(F)nn3c21` (single isomer, unassigned) [Example 185] was run?
Answer: < 10 nM

Question: Which IC50 does the source give for `O=C(Nc1cnc(C(O)C(F)F)c(Cl)c1)C1CC2(CCC2)c2c1cnc1cc(F)nn21` (single isomer, unassigned) [Example 134, N-(5-chloro-6-(2,2-difluoro-1-hydroxyethyl)pyridin-3-yl)-2′-fluoro-6′,7′-dihydrospiro[cyclobutane-1,8′-cyclopenta[e]pyrazolo[1,5-a]pyrimidine]-6′-carboxamide] here?
Answer: ≥ 1000 nM

Question: How did the IC50 turn out when `C[C@@H](O)c1cnn(-c2ncc(NC(=O)[C@@H]3CC(C)(C)c4c3cnc3cc(Cl)nn43)cc2Cl)n1` (single isomer, unassigned) [Example 52, 2-chloro-N-(5-chloro-6-(4-(1-hydroxyethyl)-2H-1,2,3-triazol-2-yl)pyridin-3-yl)-8,8-dimethyl-7,8-dihydro-6H-cyclopenta[e]pyrazolo[1,5-a]pyrimidine-6-carboxamide] was run?
Answer: 100 to 1000 nM

Question: For `CCO[C@@]1(C(F)(F)F)C[C@H](C(=O)Nc2cnc(-n3nccn3)c(Cl)c2)c2cnc3cc(Cl)nn3c21` (single isomer, unassigned) [Example 168, (trans)-2-chloro-N-(5-chloro-6-(2H-1,2,3-triazol-2-yl)pyridin-3-yl)-8-ethoxy-8-(trifluoromethyl)-7,8-dihydro-6H-cyclopenta[e]pyrazolo[1,5-a]pyrimidine-6-carboxamide], which IC50 is on record?
Answer: 100 to 1000 nM

Question: Which IC50 does the source give for `CC1(C)C[C@@H](C(=O)Nc2cnc(OC(F)F)c(C#N)c2)c2cnc3cc(F)nn3c21` (single isomer, unassigned) [Example 83, N-(5-cyano-6-(difluoromethoxy)pyridin-3-yl)-2-fluoro-8,8-dimethyl-7,8-dihydro-6H-cyclopenta[e]pyrazolo[1,5-a]pyrimidine-6-carboxamide] here?
Answer: 100 to 1000 nM

Question: `O=C(Nc1cnc(-n2nccn2)c(C(F)(F)F)c1)[C@H]1C[C@]2(CCO2)c2c1cnc1cc(Cl)nn21` (racemic) [Example 117, (cis)-N-(6-(2H-1,2,3-triazol-2-yl)-5˜(trifluoromethyl)pyridin-3-yl)-2-chloro-6,7-dihydrospiro[cyclopenta[e]pyrazolo[1,5-a]pyrimidine-8,2′-oxetane]-6-carboxamide] was tested. Which IC50 did it give?
Answer: 10 to 100 nM

Question: How did the IC50 turn out when `CC1(C)CC(C(=O)Nc2cc(C(F)F)c(-c3c[nH]cn3)c(=O)[nH]2)c2cnc3cc(Cl)nn3c21` (stereo not drawn) [Example 48, 2-chloro-N-(4-(difluoromethyl)-5˜(1H-imidazol-4-yl)-6-oxo-1,6-dihydropyridin-2-yl)-8,8-dimethyl-7,8-dihydro-6H-cyclopenta[e]pyrazolo[1,5-a]pyrimidine-6-carboxamide] was run?
Answer: 10 to 100 nM

Question: Which IC50 does the source give for `CC1(C)CC(C(=O)Nc2cc(C(F)F)c(-n3nccn3)c(=O)[nH]2)c2cnc3cc(Cl)nn3c21` (stereo not drawn) [Example 61, 2-chloro-N-(4-(difluoromethyl)-6-oxo-5˜(2H-1,2,3-triazol-2-yl)-1,6-dihydropyridin-2-yl)-8,8-dimethyl-7,8-dihydro-6H-cyclopenta[e]pyrazolo[1,5-a]pyrimidine-6-carboxamide] here?
Answer: 10 to 100 nM

Question: `CC1(C)C[C@@H](C(=O)Nc2cnc(-n3ncc(C4COC4)n3)c(Cl)c2)c2cnc3cc(Cl)nn3c21` (single isomer, unassigned) [Example 110, 2-chloro-N-(5-chloro-6-(4-(oxetan-3-yl)-2H-1,2,3-triazol-2-yl)pyridin-3-yl)-8,8-dimethyl-7,8-dihydro-6H-cyclopenta[e]pyrazolo[1,5-a]pyrimidine-6-carboxamide] was tested. Which IC50 did it give?
Answer: 10 to 100 nM

Question: With `C[C@@]1(C(F)(F)F)C[C@@H](C(=O)Nc2cnc(-n3nccn3)c(C(F)(F)F)c2)c2cnc3cc(Cl)nn3c21` (single isomer, unassigned) [Example 53, N-(6-(2H-1,2,3-triazol-2-yl)-5˜(trifluoromethyl)pyridin-3-yl)-2-chloro-8-methyl-8-(trifluoromethyl)-7,8-dihydro-6H-cyclopenta[e]pyrazolo[1,5-a]pyrimidine-6-carboxamide] as the molecule, how does the IC50 read?
Answer: 100 to 1000 nM

Question: `CC1(C)CC(C(=O)Nc2cc(C(F)F)c(-c3cnco3)c(=O)[nH]2)c2cnc3cc(Cl)nn3c21` (stereo not drawn) [Example 59, 2-chloro-N-(4-(difluoromethyl)-5˜(oxazol-5-yl)-6-oxo-1,6-dihydropyridin-2-yl)-8,8-dimethyl-7,8-dihydro-6H-cyclopenta[e]pyrazolo[1,5-a]pyrimidine-6-carboxamide] was tested. Which IC50 did it give?
Answer: 10 to 100 nM

Question: For `O=C(Nc1cnc(-n2nccn2)c(C(F)(F)F)c1)C1CC2(CC2)c2c1cnc1cc(Cl)nn21` (single isomer, unassigned) [Example 148, N-(6-(2H-1,2,3-triazol-2-yl)-5-(trifluoromethyl)pyridin-3-yl)-2-chloro-6,7-dihydrospiro[cyclopenta[e]pyrazolo[1,5-a]pyrimidine-8,1′-cyclopropane]-6-carboxamide], which IC50 is on record?
Answer: ≥ 1000 nM

Question: How did the IC50 turn out when `CC1(C)C[C@@H](C(=O)Nc2cnc(OC3CC3)c(C#N)c2)c2cnc3cc(F)nn3c21` (single isomer, unassigned) [Example 80, N-(5-cyano-6-cyclopropoxypyridin-3-yl)-2-fluoro-8,8-dimethyl-7,8-dihydro-6H-cyclopenta[e]pyrazolo[1,5-a]pyrimidine-6-carboxamide] was run?
Answer: ≥ 1000 nM

Question: Which IC50 does the source give for `CC1(C)CC(C(=O)Nc2ccnc(C(F)(F)F)c2)c2cnn3cc(C(F)F)nc3c21` (single isomer, unassigned) [Example 201, 2-(difluoromethyl)-9,9-dimethyl-N-(2-(trifluoromethyl)pyridin-4-yl)-8,9-dihydro-7H-cyclopenta[d]imidazo[1,2-b]pyridazine-7-carboxamide] here?
Answer: 100 to 1000 nM
